Measured values from the supplement of paper PMC10307832.

Key:
Test in all cases: relative viability (nuclei count vs DMSO), 5 days (fraction); higher = more cells survive
Entinostat + Decitabine = compound: Nc1ccccc1NC(=O)c1ccc(CNC(=O)OCc2cccnc2)cc1 [Entinostat] + Nc1ncn([C@H]2C[C@H](O)[C@@H](CO)O2)c(=O)n1 [Decitabine] (partner 2 µM)
How it was run: (§1)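 Dosing by pin tool came one day after lung cancer cell lines were seeded in 1536-well plates, using either one drug or a fixed anchor-drug dose plus five library-drug doses (not always all listed) in √10 steps. After 5 days, nuclei were counted on 4× images. Relative viability is treated-well nuclei count divided by vehicle-well nuclei count, and values are medians of duplicate plates.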

[1] = compound: C1COCCN1C2=NC(=NC3=C2OC4=C3C=CC=N4)C5=CC(=CC=C5)NC(=O)C6=CN=C(C=C6)N + Cc1cc(Nc2cc(N3CCN(C)CC3)nc(Sc3ccc(NC(=O)C4CC4)cc3)n2)n[nH]1 [Tozasertib] (partner 0.1 µM)
How it was run: as §1

Entinostat + Linsitinib = compound: Nc1ccccc1NC(=O)c1ccc(CNC(=O)OCc2cccnc2)cc1 [Entinostat] + C[C@]1(O)C[C@@H](c2nc(-c3ccc4ccc(-c5ccccc5)nc4c3)c3c(N)nccn32)C1 [Linsitinib] (partner 1 µM)
How it was run: as §1

SGI-1776 + OSI-027 = compound: CN1CCC(CNc2ccc3ncc(-c4cccc(OC(F)(F)F)c4)n3n2)CC1 [SGI-1776] + COc1cccc2cc(-c3nc([C@H]4CC[C@H](C(=O)O)CC4)n4ncnc(N)c34)[nH]c12 [OSI-027] (partner 0.5 µM)
How it was run: as §1

Cell Line | relative viability (Entinostat + Decitabine; first compound 0.02 µM) | relative viability (Entinostat + Decitabine; first compound 0.06325 µM) | relative viability (Entinostat + Decitabine; first compound 0.2 µM) | relative viability (Entinostat + Decitabine; first compound 0.6325 µM) | relative viability (Entinostat + Decitabine; first compound 2 µM) | relative viability ([1]; first compound 0.02 µM) | relative viability ([1]; first compound 0.06325 µM) | relative viability ([1]; first compound 0.2 µM) | relative viability ([1]; first compound 0.6325 µM) | relative viability ([1]; first compound 2 µM) | relative viability (Entinostat + Linsitinib; first compound 0.02 µM) | relative viability (Entinostat + Linsitinib; first compound 0.06325 µM) | relative viability (Entinostat + Linsitinib; first compound 0.2 µM) | relative viability (Entinostat + Linsitinib; first compound 0.6325 µM) | relative viability (Entinostat + Linsitinib; first compound 2 µM) | relative viability (SGI-1776 + OSI-027; first compound 0.08 µM) | relative viability (SGI-1776 + OSI-027; first compound 0.8 µM) | relative viability (SGI-1776 + OSI-027; first compound 2.53 µM) | relative viability (SGI-1776 + OSI-027; first compound 8 µM)
NCI-H647 | 0.382 | 0.256 | 0.258 | 0.166 | 0.166 | 0.155 | 0.292 | 0.252 | 0.137 | 0.145 | 1.23 | 1.14 | 0.932 | 0.327 | 0.121 | 0.712 | 0.613 | 0.559 | 0.301
NCI-H2126 | 0.557 | 0.53 | 0.57 | 0.418 | 0.346 | 0.868 | 0.895 | 0.767 | 0.702 | 0.518 | 0.732 | 0.707 | 0.618 | 0.518 | 0.367 | 0.708 | 0.813 | 0.693 | 0.659
NCI-H727 | 0.913 | 1.35 | 1.03 | 0.853 | 0.681 | 0.668 | 0.839 | 0.599 | 0.467 | 0.524 | 0.306 | 0.344 | 0.35 | 0.255 | 0.0975 | 0.543 | 0.627 | 0.615 | 0.438
NCI-H522 | 0.65 | 0.684 | 0.693 | 0.666 | 0.639 | 0.491 | 0.497 | 0.472 | 0.374 | 0.541 | – | – | – | – | – | 0.713 | 0.811 | 0.749 | 0.569
EMC-BAC-2 | 0.988 | 0.916 | 0.815 | 0.486 | 0.364 | 0.302 | 0.289 | 0.26 | 0.299 | 0.303 | 0.837 | 0.915 | 0.983 | 0.731 | 0.487 | 0.355 | 0.371 | 0.363 | 0.319
ChaGo-K-1 | 0.572 | 0.545 | 0.543 | 0.443 | 0.45 | 0.217 | 0.23 | 0.197 | 0.228 | 0.224 | – | – | – | – | – | 0.619 | 0.61 | 0.39 | 0.413
NCI-H1648 | 0.476 | 0.524 | 0.416 | 0.326 | 0.285 | 0.468 | 0.48 | 0.473 | – | 0.617 | – | – | – | – | – | 0.233 | 0.273 | 0.249 | 0.238
NCI-H1792 | 0.613 | 0.505 | 0.48 | 0.354 | 0.196 | – | – | – | – | – | 0.476 | 0.502 | 0.392 | 0.276 | 0.153 | 0.764 | 0.68 | 0.688 | 0.514
NCI-H1703 | – | – | – | – | – | – | – | – | – | – | 0.883 | 0.805 | 0.857 | 0.919 | 0.582 | – | – | – | –
EBC-1 | – | – | – | – | – | – | – | – | – | – | 0.934 | 0.94 | 0.811 | 0.22 | 0.122 | – | – | – | –
NCI-H1563 | – | – | – | – | – | – | – | – | – | – | 1.14 | 1.2 | 1.09 | 0.897 | 0.769 | 0.749 | 0.8 | 0.674 | 0.614
NCI-H2170 | 0.465 | 0.468 | 0.376 | 0.281 | 0.236 | 0.742 | 0.828 | 0.633 | 0.703 | 0.445 | – | – | – | – | – | 0.741 | 0.671 | 0.666 | 0.67
